# Patent US7906655B2, “Hepatitis C virus inhibitors” (Bristol-Myers Squibb Company, priority 2008, dated 2011)
# Tested on: HCV 1b genotype
# Experiment: HCV Replicon assay (HCV-neo replicon cells, wild-type)
# Format: cell-based
# Conditions: Hepatitis C virus, HCV 1b genotype replicon
# Method in brief: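 Assay used wild-type HCV genotype 1b replicon cells carrying neo, with luciferase reporter read-outs in some formats.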
SMILES,EC50 (numeric values),EC50 (class symbols)
"O=C(c1ccncc1)N1CCN(C(=O)OCc2ccccc2)C(c2nc3cc(CCc4ccc5nc(C6CN(C(=O)c7ccncc7)CCN6C(=O)OCc6ccccc6)[nH]c5c4)ccc3[nH]2)C1 (stereo not drawn) [OL13, benzyl 2-(5-(2-(2-(1-((benzyloxy)carbonyl)-4-isonicotinoyl-2-piperazinyl)-1H-benzimidazol-6-yl)ethyl)-1H-benzimidazol-2-yl)-4-isonicotinoyl-1-piperazinecarboxylate]",8560 nM,–
"CN(C)C(=O)C[C@H](NC(=O)OCc1ccccc1)c1nc2cc(CCc3ccc4[nH]c([C@H](CC(=O)N(C)C)NC(=O)OCc5ccccc5)nc4c3)ccc2[nH]1 [OL14, benzyl((1S)-1-(5-(2-(2-((1S)-1-(((benzyloxy)carbonyl)amino)-3-(dimethylamino)-3-oxopropyl)-1H-benzimidazol-6-yl)ethyl)-1H-benzimidazol-2-yl)-3-(dimethylamino)-3-oxopropyl)carbamate]",–,100 to 999 nM
"C[C@H](NC(=O)[C@H]1CCCO1)c1nc2cc(CCc3ccc4[nH]c([C@H](C)NC(=O)[C@H]5CCCO5)nc4c3)ccc2[nH]1 [OL15, (2R,2′R)—N,N′-(1,2-ethanediylbis(1H-benzimidazole-5,2-diyl(1S)-1,1-ethanediyl))ditetrahydro-2-furancarboxamide]",–,100 to 999 nM
